{"source": "patent US20050031537A1", "about": "“Multifunctional COX-2 inhibitors” (priority 2002, published 2005)", "assay_type_in_all_cases": "cell-based, human", "key": {"[1]": {"tested_on": "tcf/lef/β-catenin-mediated promoter activation", "test": "TOPflash/FOPflash reporter assay for tcf/lef/β-catenin-mediated promoter activation (test (f))", "conditions": "positive in 184B5, 184B5/HER, HCA7, HCT116, SKBR3 and BT474 cells; 24 h", "excerpt": "Tcf/lef/β-catenin is a transcription factor complex that has been implicated in the regulation of genes involved in carcinogenesis. Increased tcf/lef/β-catenin-mediated gene expression has been linked to pathogenesis of colon cancer. Tcf/lef/β-catenin is described in Barker, N., et al, Adv. Cancer Res. 77, 1-24 (2000), the whole of which is incorporated herein by reference.\nCells (cell lines were 184B5, 184B5/HER, HCA7, HCT116, SKBR3 and BT474) were split into 6 well dishes and the next day were transiently transfected using 8 μg of LipofectAMlNE as per the manufacturer's instructions (Invitrogen, CA). 1.8 μg/dish of the wildtype Tcf/Lef reporter plasmid TOP flash or the mutant plasmid FOP flash was transfected into the cells and 0.2 μg of pSV-β-galactosidase. FOPflash differs from TOPflash by the mutation of its Tcf binding sites and serves to differentiate Tef/-catenin-mediated signaling from background (Upstate Biotechnology, Inc.). Cells were incubated overnight and were treated for 24 hours with either vehicle or test compound. Luciferase activity in the extracts was measured as described above and was corrected for background by subtraction of FOP-FLASH values from corresponding TOP-FLASH values."}, "PTEN": {"tested_on": "PTEN", "test": "Western and Northern blotting for expression of PTEN (test (e))", "conditions": "for Test (e) at least 50% increase in expression of PTEN: positive in 184B5, 184B5/HER, HCA7, HCT116, SKBR3 and BT474 cells", "experimental": "We turn now to criterion (e), i.e., at least 50% increase in expression of PTEN.\nPTEN is a tumor suppressor that inhibits cell proliferation and induces programmed cell death. PTEN (also know as MMAC-1 or TEP-1) is described in Yamada, K. M., et al, Journal of Cell Science 114, 2375-2382, the whole of which is incorporated herein by reference.\n(§1) Western blotting and Northern blotting techniques were used to evaluate the expression of PTEN. The expression of PTEN was evaluated in HCA7, HCT116, SKBR3, 184B5/HER, 184B5 and BT474 cells. 5×10^6cells were used to treat either vehicle alone or the test compound. The Western blotting analysis was performed as described above except anti-PTEN antibody was used to probe the blot. The antibody was obtained from Santa Cruz Biotechnology, Inc. CA. Northern blotting for PTEN was performed as described above and cDNA for PTEN as described in Tamura, M., et al, Science 5; 280 (5369):1614-1617 (1998), was used as a probe."}, "Nrf-2": {"tested_on": "Nrf-2", "test": "Western and Northern blotting for expression of Nrf-2 (test (g))", "conditions": "positive in 184B5, 184B5/HER, HCA7, HCT116, SKBR3, BT474 and CaSki cells", "experimental": "We turn now to criterion (g), i.e. at least 50% increase in expression of Nrf-2. […] 13, 2001).\nas §1, with “Nrf-2.” for “PTEN.”, “Nrf-2” for “PTEN”, “SKBR3, CaSki,” for “SKBR3,”, “anti-Nrf-2” for “anti-PTEN”, “Gong, P.,” for “Tamura, M.,”, “al., J.Biol Chem 20; 276:27018-27025 (2001)” for “al, Science 5; 280 (5369):1614-1617 (1998),”"}, "PPRE luciferase": {"tested_on": "PPRE luciferase", "test": "PPRE luciferase activation, transient transfection reporter assay (test (a))", "conditions": "for Test (a) activation of PPRE luciferase by at least 100%: positive in 184B5, 184B5/HER, HCA7, HCT116, SKBR3 and BT474 cells, 24 h treatment", "excerpt": "We turn now to criterion (a), that is activation of PPRE luciferase by at least 100%. PPRE-luciferase refers to a DNA construct containing the peroxisome proliferator activated receptor (PPAR) binding element joined to luciferase. Cells are transfected with PPRE-luciferase DNA. Ligands of PPAR induce luciferase activity. The ability of a test compound to stimulate PPRE-luciferase signifies that the test compound activates PPAR-mediated gene transcription. PPRE means peroxisome proliferator response element and the method by which PPRE-luciferase is constructed is described in Schoonjans, K., et al, J. Biol. Chem. 270, No. 33, 19269-19276 (Aug. 18, 1995). Use of PPRE-luciferase in a transient transfection to measure increase in promoter activity is disclosed in Subbaramaiah, K. et al, J. Biol. Chem. 270, No. 15, 12440-12448 (Apr. 13, […]).\nFor each well, 1.8 μg of PPRE3-tk-luciferase construct plasmid DNA (described in Forman, B. M., et al, Cell 83, 803 (1995)) plus 0.2 μg of pSV-β-galactosidase were introduced into cells using 8 μg of LipofectAMINE as per the manufacturer's instructions (Invitrogen, CA). After 7 h of incubation, the medium was replaced with basal medium. After transfection, cells were treated with test compound for 24 h. Reporter activities which include luciferase and β-galactosidase were measured in cellular extract 24 h later. Six wells were used for each of the conditions. Luciferase activity represents data that have been normalized with β-galactosidase.\nThe luciferase assay was performed as per the BD Pharmingen assay reagents. The Enhanced Luciferase Assay Kit provides a firefly luciferase substrate formulation (Substrates A and B) and cell lysis buffer intended for use in measuring luciferase expressed by transfected cells. Media from cell culture plates was removed and rinsed twice with phosphate buffered saline. Enough 1X cell lysis buffer was added to cover cells and incubated at room temperature for 15-20 min. Cells were dislodged by scraping and transferred to microcentrifuge tubes. […] 20-100 μl cell extract was placed into an assay cuvette. One automatic injector type luminometer is used for assay. Manually 100 μl of Substrate A was added to the assay cuvette and automatically 100 μl of Substrate B was injected. Measurements were performed using a luminometer, for a measurement time of 10 seconds.\nThe β-galactosidase assay was performed as follows:\n50 μl of cell lysate from above was incubated with 50 μl of o-nitrophenyl-β-D-galactoside (ONPG; 4 mg/mL) in Z buffer, (Na2HPO4.7H2O (0.06M), NaH2PO4.H2O (0.04M), 1M KCl (0.01M), 1M MgSO4 (0.001M), β-mercaptoethanol (BME) (0.05M) pH 7.0). The reaction was stopped after sufficient yellow color has developed. The yellow color developed is measured at A420 […]."}}, "data": [{"smiles": "CCCCCCCOC(=O)Cc1c(C)n(C(=O)c2ccc(Cl)cc2)c2ccc(OC)cc12", "note": "[Indomethacin Analog 1, indomethacin heptyl ester]", "values": [{"measurement": "Test (f) at least 50% inhibition of tcf/lef/β-catenin-mediated promoter activation", "setting": "[1]", "value": "+ (A plus sign in the table indicates a positive result, that is meeting the test for each cell line as indicated above as providing a positive result)"}, {"measurement": "Test (e) at least 50% increase in expression of PTEN", "setting": "PTEN", "value": "+ (A plus sign in the table indicates a positive result, that is meeting the test for each cell line as indicated above as providing a positive result)"}, {"measurement": "Test (g) at least 50% increase in expression of Nrf-2", "setting": "Nrf-2", "value": "+ (A plus sign in the table indicates a positive result, that is meeting the test for each cell line as indicated above as providing a positive result)"}, {"measurement": "Test (a) activation of PPRE luciferase by at least 100%", "setting": "PPRE luciferase", "value": "+ (A plus sign in the table indicates a positive result, that is meeting the test for each cell line as indicated above as providing a positive result)"}]}, {"smiles": "Cc1ccc(-c2cc(C(F)(F)F)nn2-c2ccc(S(N)(=O)=O)cc2)cc1", "note": "[Celecoxib]", "values": [{"measurement": "Test (f) at least 50% inhibition of tcf/lef/β-catenin-mediated promoter activation", "setting": "[1]", "value": "+ (A plus sign in the table indicates a positive result, that is meeting the test for each cell line as indicated above as providing a positive result)"}, {"measurement": "Test (e) at least 50% increase in expression of PTEN", "setting": "PTEN", "value": "+ (A plus sign in the table indicates a positive result, that is meeting the test for each cell line as indicated above as providing a positive result)"}, {"measurement": "Test (g) at least 50% increase in expression of Nrf-2", "setting": "Nrf-2", "value": "+ (A plus sign in the table indicates a positive result, that is meeting the test for each cell line as indicated above as providing a positive result)"}, {"measurement": "Test (a) activation of PPRE luciferase by at least 100%", "setting": "PPRE luciferase", "value": "+ (A plus sign in the table indicates a positive result, that is meeting the test for each cell line as indicated above as providing a positive result)"}]}, {"smiles": "NS(=O)(=O)c1ccc(-n2nc(C(F)(F)F)cc2-c2ccc(Cl)cc2)cc1", "note": "[SC-236, 4-[5-(4-chlorophenyl)-3-(trifluoromethyl)-1H-pyrazol-1-yl]benzenesulfonamide]", "values": [{"measurement": "Test (f) at least 50% inhibition of tcf/lef/β-catenin-mediated promoter activation", "setting": "[1]", "value": "+ (A plus sign in the table indicates a positive result, that is meeting the test for each cell line as indicated above as providing a positive result)"}, {"measurement": "increase in amounts of PTEN", "setting": "PTEN; 184B5 cells, 24 hours, Western blotting", "value": "> 100", "unit": "%"}, {"measurement": "Test (e) at least 50% increase in expression of PTEN", "setting": "PTEN", "value": "+ (A plus sign in the table indicates a positive result, that is meeting the test for each cell line as indicated above as providing a positive result)"}, {"measurement": "Test (g) at least 50% increase in expression of Nrf-2", "setting": "Nrf-2", "value": "+ (A plus sign in the table indicates a positive result, that is meeting the test for each cell line as indicated above as providing a positive result)"}, {"measurement": "activation of the promoter (PPRE-luciferase)", "setting": "PPRE luciferase; 184B5 cells, 24 hours, highest concentration", "value": 150, "unit": "%"}, {"measurement": "Test (a) activation of PPRE luciferase by at least 100%", "setting": "PPRE luciferase", "value": "+ (A plus sign in the table indicates a positive result, that is meeting the test for each cell line as indicated above as providing a positive result)"}]}, {"smiles": "CS(=O)(=O)c1ccc(-n2nc(C(F)(F)F)cc2-c2ccc(F)cc2)cc1", "note": "[SC-58125, 4-[5-(4-fluorophenyl)-3-(trifluoromethyl)-1H-pyrazol-1-yl]benzenemethylsulfone]", "values": [{"measurement": "Test (f) at least 50% inhibition of tcf/lef/β-catenin-mediated promoter activation", "setting": "[1]", "value": "+ (A plus sign in the table indicates a positive result, that is meeting the test for each cell line as indicated above as providing a positive result)"}, {"measurement": "Test (e) at least 50% increase in expression of PTEN", "setting": "PTEN", "value": "+ (A plus sign in the table indicates a positive result, that is meeting the test for each cell line as indicated above as providing a positive result)"}, {"measurement": "Test (g) at least 50% increase in expression of Nrf-2", "setting": "Nrf-2", "value": "+ (A plus sign in the table indicates a positive result, that is meeting the test for each cell line as indicated above as providing a positive result)"}, {"measurement": "Test (a) activation of PPRE luciferase by at least 100%", "setting": "PPRE luciferase", "value": "+ (A plus sign in the table indicates a positive result, that is meeting the test for each cell line as indicated above as providing a positive result)"}]}, {"smiles": "COc1ccc(OC(=O)Cc2c(C)n(C(=O)c3ccc(Cl)cc3)c3ccc(OC)cc23)cc1", "note": "[Indomethacin Analog 3, 1-(p-chlorobenzoyl)-5-methoxy-2-methyl-1H-indole-3-acetic acid, 4-methoxyphenyl ester]", "values": [{"measurement": "Test (f) at least 50% inhibition of tcf/lef/β-catenin-mediated promoter activation", "setting": "[1]", "value": "+ (A plus sign in the table indicates a positive result, that is meeting the test for each cell line as indicated above as providing a positive result)"}, {"measurement": "Test (g) at least 50% increase in expression of Nrf-2", "setting": "Nrf-2", "value": "+ (A plus sign in the table indicates a positive result, that is meeting the test for each cell line as indicated above as providing a positive result)"}, {"measurement": "Test (a) activation of PPRE luciferase by at least 100%", "setting": "PPRE luciferase", "value": "+ (A plus sign in the table indicates a positive result, that is meeting the test for each cell line as indicated above as providing a positive result)"}]}]}
